This passage reports Ki and melting point results from patent publication US6703415B2, “Inhibitors of matrix metallaproteinases” (Wayne State University, priority 2000, dated 2004).

Read-outs that look alike come from different tables or passages of the source.

Broadly, the Ki is a measure of affinity in units of concentration, obtained from inhibition or displacement. The term melting point denotes the temperature, or range, at which the solid turns liquid.

For data set [1], the target named is T1, MMP-1 (Homo sapiens, UniProt P03956).
T1 sequence (P03956 100-469): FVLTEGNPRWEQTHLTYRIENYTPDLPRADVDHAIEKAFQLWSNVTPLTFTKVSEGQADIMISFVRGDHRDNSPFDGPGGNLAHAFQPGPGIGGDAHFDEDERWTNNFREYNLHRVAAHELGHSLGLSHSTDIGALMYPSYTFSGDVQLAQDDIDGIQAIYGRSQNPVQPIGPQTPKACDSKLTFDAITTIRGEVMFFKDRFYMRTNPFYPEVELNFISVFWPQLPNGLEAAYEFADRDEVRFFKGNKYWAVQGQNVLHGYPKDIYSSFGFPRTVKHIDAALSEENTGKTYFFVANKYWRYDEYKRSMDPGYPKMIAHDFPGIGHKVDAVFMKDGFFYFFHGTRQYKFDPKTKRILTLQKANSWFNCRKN
The data set can be described thus: Kinetic analyses, MMP-1. In kind it is biochemical. Particulars: NI = not inhibiting even at 130-330 μM. How it is done: The progress curves were nonlinear least squares fitted to Equation 1 (Muller-Steffner, H. M., Malver, O., Hosie, L., Oppenheimer, N. J., and Schuber, F. J. Biol. Chem. 1992, 267, 9606-9611.):
Analysis for linear competitive inhibition was performed in the following manner. […] The fluorescence versus time traces were fitted by linear regression analysis using FeliX™. The initial rates were fitted to Equation 5 (Segel, I. H. in: Enzyme Kinetics, Wiley Inc., New York, 1975, pp. 104.):
The following buffers were used in experiments with enzymes: Buffer C (50 mM HEPES at pH 7.5, 150 mM NaCl, 5 mM CaCl2, 0.02% Brij-35); buffer R (50 mM HEPES at pH 7.5, 150 mM NaCl, 5 mM CaCl2, 0.01% Brij-35, and 1% v/v Me2SO) and buffer D (50 mM Tris at pH 7.5, 150 mM NaCl, 5 mM CaCl2, and 0.02% Brij-35).

Data set [2] addresses T2, MMP-2 (Homo sapiens, UniProt P08253).
T2 sequence (P08253 110-660): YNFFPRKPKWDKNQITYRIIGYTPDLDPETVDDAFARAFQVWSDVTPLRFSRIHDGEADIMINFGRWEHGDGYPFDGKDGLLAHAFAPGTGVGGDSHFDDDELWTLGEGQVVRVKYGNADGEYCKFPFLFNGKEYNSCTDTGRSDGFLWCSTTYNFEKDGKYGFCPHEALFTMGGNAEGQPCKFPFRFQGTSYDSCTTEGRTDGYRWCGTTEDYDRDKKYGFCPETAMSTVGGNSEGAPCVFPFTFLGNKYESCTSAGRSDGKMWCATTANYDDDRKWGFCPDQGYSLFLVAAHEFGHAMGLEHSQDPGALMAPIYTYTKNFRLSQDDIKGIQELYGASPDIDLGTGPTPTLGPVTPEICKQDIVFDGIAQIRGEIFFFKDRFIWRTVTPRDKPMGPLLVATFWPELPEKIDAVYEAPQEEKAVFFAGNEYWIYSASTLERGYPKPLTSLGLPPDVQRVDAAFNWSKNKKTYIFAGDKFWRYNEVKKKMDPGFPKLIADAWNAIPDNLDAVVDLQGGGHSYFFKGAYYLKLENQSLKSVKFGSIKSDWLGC
The data set can be described thus: biochemical.

Data set [3] deals with T3, MMP-9 (Homo sapiens, UniProt P14780). The data set can be described thus: biochemical.
Data set [4] has as its target T4, MMP-3 (Homo sapiens, UniProt P08254).
T4 construct: gift of Dr. Paul Cannon, Center for Bone and Joint Research, Palo Alto, Calif
Description: Fluorescence enzymatic activity assay / kinetic analyses, stromelysin 1 (MMP-3). As to conditions: NI = not inhibiting even at 130-330 μM. In kind it is biochemical.

Data set [5] concerns the target T5, MMP-7 (Homo sapiens, UniProt P09237).
T5 sequence (P09237 95-267): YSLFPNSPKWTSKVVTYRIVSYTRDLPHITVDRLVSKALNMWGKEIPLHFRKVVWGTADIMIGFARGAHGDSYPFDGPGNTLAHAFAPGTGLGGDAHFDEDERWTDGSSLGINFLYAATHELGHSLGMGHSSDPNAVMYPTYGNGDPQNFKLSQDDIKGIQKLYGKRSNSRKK
The data set can be described thus: Fluorescence enzymatic activity assay / kinetic analyses, MMP-7. In kind it is biochemical. Particulars: NI = not inhibiting even at 130-330 μM.
Description: The enzymatic activity of MMP-2, MMP-9, and MMP-7 was monitored with the fluorescence quenched substrate MOCAcPLGLA2pr(Dnp)-AR-NH2. Fluorescence was measured with a Photon Technology International (PTI) spectrofluorometer interfaced to a Pentium computer, equipped with the RatioMaster™ and FeliX™ hardware and software, respectively. The cuvette compartment was thermostated at 25.0° C. […] Fluorescence measurements were taken every 4 s. Less than 10% hydrolysis of the fluorogenic substrate was monitored, as described by Knight.

In data set [6] the target is T3, MMP-9. As to conditions: high-affinity site for TIMPs, reported earlier (Olson et al. 1997); cited from earlier work.
Data set [7] deals with T2, MMP-2. As to conditions: high-affinity site for TIMPs, reported earlier (Olson et al. 1997); cited from earlier work.

T4 sequence (P08254 100-477): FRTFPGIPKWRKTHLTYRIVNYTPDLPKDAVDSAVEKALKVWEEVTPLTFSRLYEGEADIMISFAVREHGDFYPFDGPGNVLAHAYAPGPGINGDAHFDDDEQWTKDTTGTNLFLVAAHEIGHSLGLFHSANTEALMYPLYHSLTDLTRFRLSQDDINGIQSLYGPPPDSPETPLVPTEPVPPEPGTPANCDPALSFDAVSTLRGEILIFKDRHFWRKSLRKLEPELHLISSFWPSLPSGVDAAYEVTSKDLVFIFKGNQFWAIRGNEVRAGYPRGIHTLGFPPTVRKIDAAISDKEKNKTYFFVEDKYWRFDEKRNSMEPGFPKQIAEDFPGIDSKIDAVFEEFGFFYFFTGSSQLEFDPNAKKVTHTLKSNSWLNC
T3 sequence (P14780 107-707 limits assumed): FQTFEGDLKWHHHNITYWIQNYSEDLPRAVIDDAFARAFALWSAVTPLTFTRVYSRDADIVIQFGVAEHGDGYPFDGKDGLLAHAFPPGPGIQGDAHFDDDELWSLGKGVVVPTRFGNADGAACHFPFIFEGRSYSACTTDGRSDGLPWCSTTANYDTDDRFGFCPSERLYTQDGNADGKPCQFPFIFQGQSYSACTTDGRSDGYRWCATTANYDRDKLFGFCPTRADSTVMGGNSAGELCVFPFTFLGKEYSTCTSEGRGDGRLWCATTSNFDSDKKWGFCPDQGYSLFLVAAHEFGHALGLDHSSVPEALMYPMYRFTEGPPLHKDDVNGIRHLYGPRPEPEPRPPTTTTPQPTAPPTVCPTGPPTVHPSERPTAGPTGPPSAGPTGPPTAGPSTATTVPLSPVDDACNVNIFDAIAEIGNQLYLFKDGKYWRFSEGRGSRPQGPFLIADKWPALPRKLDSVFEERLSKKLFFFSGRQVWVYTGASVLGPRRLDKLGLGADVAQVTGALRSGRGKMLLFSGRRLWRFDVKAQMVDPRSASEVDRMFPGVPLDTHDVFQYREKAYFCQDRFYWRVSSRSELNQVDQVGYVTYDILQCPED

`O=S(=O)(CCC1CS1)c1ccc(Oc2ccccc2)cc1` (stereo not shown) [Compound 2, 2-(4-Phenoxyphenylsulfonyl)ethylthiirane] came in with a melting point of 99 to 101 °C. The inhibitory constant (Ki) in data set [1] is above 130 µM. The Ki in data set [2] was found to be 4.7 ± 0.7 µM. The same molecule returned an inhibition constant (Ki) in data set [3] of 44 ± 5 µM. In addition, in data set [4], the Ki was above 130 µM. In data set [5], this molecule yielded a Ki above 130 µM.
As for `O=S(=O)(CCCC1CS1)c1ccc(Oc2ccccc2)cc1` (stereo not shown) [Compound 3, 3-(4-Phenoxyphenylsulfonyl)propylthiirane], the melting point is 75 to 76 °C. Further, the inhibitory constant (Ki) in data set [1] was above 130 µM. Further, the affinity in data set [2], expressed as Ki, was 4.3 ± 0.7 µM. This molecule also registered a Ki in data set [3] of 181 ± 41 µM. In data set [4], this molecule gave a Ki above 130 µM. The molecule further registered an inhibitory constant (Ki) in data set [5] above 130 µM.
Take `O=S(=O)(CC1CO1)c1ccc(Oc2ccccc2)cc1` (stereo not shown) [Compound 4, (4-Phenoxyphenylsulfonyl)methyloxirane]: the melting point lay within 50 to 51 °C. The molecule further had a Ki in data set [1] above 130 µM. Moreover, the Ki in data set [2] (Ki) was found to be 25 ± 2 µM. The molecule further registered a Ki in data set [3] of 186 ± 11 µM. Moreover, in data set [4], the Ki was above 130 µM. The molecule also registered a Ki in data set [5] above 130 µM.
In turn, `O=S(=O)(CCC1CO1)c1ccc(Oc2ccccc2)cc1` (stereo not shown) [Compound 5, 2-(4-Phenoxyphenylsulfonyl)ethyloxirane] registered a melting point of 75 to 77 °C. In addition, the Ki in data set [1] is above 130 µM. Besides, in data set [2] (Ki), the affinity corresponds to a Ki of 5.1 ± 0.5 µM. This molecule gave a Ki in data set [3] of 102 ± 2 µM. In data set [4], this molecule displayed a Ki above 130 µM. For the same molecule, in data set [5], the Ki was above 130 µM.
Regarding `O=S(=O)(CCCC1CO1)c1ccc(Oc2ccccc2)cc1` (stereo not shown) [Compound 6, 3-(4-Phenoxyphenylsulfonyl)propyloxirane], the Ki in data set [1] was above 130 µM; in data set [2] (Ki), 10.7 ± 0.6 µM; in data set [3], 75 ± 6 µM; in data set [4], above 130 µM; in data set [5] it was above 130 µM.
With “TIMP-1: endogenous cellular protein inhibitor of MMPs (tissue inhibitor for matrix metalloproteinases)”, the Ki in data set [6] was 0.024 ± 0.004 µM; in data set [7], 0.029 ± 0.005 µM.
